# Measurements from PMC3522636, “4F Decreases IRF5 Expression and Activation in Hearts of Tight Skin Mice” (PLoS ONE, 2012).
# Entries after “also recorded” stand apart in the source; their conditions may differ.
# What was measured:
# Format in all cases: in vivo, mouse
# IRF5 [1] = assay: IRF5 immunoprecipitation, phosphoserine and ubiquitin on IRF5 in heart lysates
# From the text: (§1) All experimental procedures and protocols involving mice were reviewed and approved by the Institutional Animal Care and Use Committee (IACUC) of the Medical College of Wisconsin (AUA#512). They also conformed to the rules in the Guiding Principles in the Care and Use of Animals published by the American Physiologic Society and the Guide for the Care and Use of Laboratory Animals published by OLAW. Male Tsk^−/+ and C57Bl/6J mice (6–8 weeks of age) were purchased from Jackson Laboratories (Bar Harbor, ME). Three groups of mice were studied; C57Bl/6J, Tsk^−/+, and Tsk^−/+ mice treated with 4F (1 mg/kg/d, sc) as published previously.
# To determine the effects of strain and 4F treatments on the activation state of IRF5 we immunoprecipitated IRF5 from heart homogenates and examined changes in phosphoserine and ubiquitination on IRF5 using previously published protocols, [15]. Briefly, heart homogenates were precleared with agarose beads for 1 hour followed by addition of anti-IRF5 antibody (Santa Cruz Biotechnologies) to the homogenates (500 µg in 0.5 ml) at 5 µg/100 µl (final concentration). Samples were incubated for 16 h at 4°C with end-over-end mixing. A 50 µl aliquot of a 50% slurry of Protein A agarose beads (Santa Cruz Biotechnologies) was added and incubated for 2 h with end-over-end mixing to pull-down immunocaptured IRF5. The beads were isolated by centrifugation and washed 3 times (3 minutes each time) in PBS. IRF5 was released from the beads with Laemmli sample buffer (Bio-Rad, Hercules, CA) containing mercaptoethanol and heating to 95°C for 5 min. IRF5 was separated from co-precipitated proteins by SDS-PAGE (4–15% Tris·HCl Criterion gels, Bio-Rad) and the proteins transferred onto nitrocellulose membranes. Membranes were blocked in 10% non-fat dry milk and then incubated in 2% non-fat dry milk containing polyclonal rabbit anti-phosphoserine (Antibodies-Online, Atlanta, GA, 1∶200 dilution), monoclonal mouse anti-ubiquitin (Santa Cruz Biotechnologies, 1∶200 dilution) or monoclonal mouse anti-K^63 ubiquitin (Enzo, Farmingdale, NY, 1∶500 dilution) overnight at 4°C. The next day, the membranes were gently washed and incubated with the HRP-conjugated donkey anti-rabbit antibody (1∶5,000, Santa Cruz Biotechnologies). Autoradiograms were developed; images of bands captured and densities analyzed as described above.
# Tsk−/+ hearts = assay: TUNEL assay, apoptotic cells in heart sections; details: 4F 1 mg/kg/d, sc; 4F-treated vs untreated Tsk−/+ hearts
# From the text: as §1
# Hearts were harvested from mice, flash frozen and imbedded in OCT and cut into 10 µm sections. A TUNEL assay was performed on the sections using an ApopTag Plus Fluorescein labeled kit (Millipore, Billerica, MA, Cat# S7111) as per the manufacturer’s instructions. Briefly, the free 3'OH DNA termini were labeled in situ with an anti-digoxigenin antibody conjugated to fluorescein. Nuclei were stained with TO-PRO 3™ for 3 minutes (1 µg/ml, Invitrogen). Slides were mounted and analyzed by confocal microscopy (Nikon Eclipse TE2000-U, EZ-C1-2 10 software, Nikon, Melville, NY). Images were captured using 488 nm excitation for fluorescein and 633 nm for nuclear labeling. Intensity was measured using Nikon Element imaging software (Nikon).
# IRF5 [2] = assay: Western blot, myocardial IRF5 expression; details: 4F 1 mg/kg/d, sc
# From the text: as §1
# Hearts harvested from C57Bl/6J, Tsk^−/+ and 4F-treated Tsk ^−/+ mice were snap-frozen and stored at −80°C for subsequent analysis. Frozen hearts were pulverized in a stainless steel mortar and pestle bathed in liquid nitrogen. The frozen powder was dissolved and homogenized in lysis buffer [MOPS pH 7.0, 20 mM; EGTA 2 mM; EDTA 5mM; NaF 30 mM; Protease Inhibitor Cocktail (Complete Mini Roche, Roche, Madison WI); Phosphatase Inhibitor Cocktail (Sigma P5726)]. Lysate proteins were quantified using BCA (bicinchoninic acid) reagent (Pierce, Rockford, IL). […] Band densities were analyzed using Image J software (NIH, Bethesda, MD).
substance,measurement,setting,value
Ac-DWFKAFYDKVAEKFKEAF-NH2 [4F],phosphoserine levels on IRF5 (in words),"IRF5 [1]; 4F 1 mg/kg/d, sc, Tsk−/+ hearts, IRF5 immunoprecipitates",decrease phosphoserine; also recorded: reduced phosphoserine levels on IRF5 in Tsk^−/+ hearts
same,decrease of phosphoserine levels on IRF5,"IRF5 [1]; 4F-treated Tsk−/+ hearts vs C57BL/6J and untreated Tsk−/+ hearts, IRF5 immunoprecipitates, Western blot",about 15%
same,total ubiquitin on IRF5,"IRF5 [1]; 4F-treated Tsk−/+ hearts vs C57BL/6J hearts, * = p<0.05, n = 4, IRF5 immunoprecipitates",increase total ubiquitin on IRF5; also recorded: increased in 4F-treated Tsk^−/+ hearts compared with the levels on IRF5 in C57BL/6J hearts; also recorded: significantly increased total ubiquitin levels on IRF5 in the Tsk^−/+ hearts
same,IRF5 activation (in words),"IRF5 [1]; 4F-treated Tsk−/+ hearts, inferred from phosphoserine and ubiquitin on IRF5",decrease IRF5 expression and activation in Tsk^−/+ hearts; also recorded: inactivated in 4F-treated Tsk^−/+ hearts
same,TUNEL positive (apoptotic) cells,Tsk−/+ hearts,decreased both measurements in Tsk^−/+ hearts; also recorded: significantly decreased the number of TUNEL positive cells in Tsk^−/+ hearts compared to the number in untreated Tsk^−/+ hearts but not to the level of TUNEL positive cells in C57Bl/6J hearts; also recorded: increased compared with the levels in the hearts of C57BL/6J mice and hearts from 4F-treated Tsk^−/+ mice; also recorded: fewer apoptotic cells than hearts from untreated Tsk^−/+ mice
same,reduction of IRF5 in Tsk−/+ hearts (band density),"IRF5 [2]; 6 weeks, vs untreated Tsk−/+ hearts",78%
same,myocardial IRF5 expression (in words),"IRF5 [2]; 6–8 weeks, Tsk−/+ hearts",decrease IRF5 in Tsk^−/+ hearts; also recorded: markedly decreased IRF5 expression in Tsk^−/+ hearts; also recorded: markedly decrease IRF5 expression in Tsk^−/+ myocardium; also recorded: decreases myocardial expression of IRF5; also recorded: decreases IRF5 levels and activation in the Tsk^−/+ mouse hearts
